# Source: patent publication EP4800015A1, “AZABICYCLO DERIVATIVE AND PREPARATION METHOD THEREFOR, AND USE” (Zhejiang Hisun Pharmaceutical Co., Ltd., priority 2023, dated 2025)
# Experiments:
# recombinant human WRN = molecular target: T1, recombinant human WRN (Homo sapiens, UniProt Q14191); assay: Inhibition of WRN enzyme activity (ATPase), ADP-Glo Kinase Assay; type: biochemical; details: WRN protein 5 nM, Flap 0.1 nM, ATP 30 µM; read-out: IC50
# T1 construct: purchased BPS 101264
# How it was run: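 ATPase activity was measured by ADP-Glo luminescence after a 10-min room-temperature reaction with 30 µM ATP and 0.1 nM Flap26 oligonucleotide substrate. The 5 nM WRN had first been exposed to compound (0.004–1000 nM) for 15 min in pH 7.5 Tris buffer with 2 mM MgCl2. IC50 values came from log-concentration regression against the DMSO control.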
# SW48 cells = assay: Inhibition of SW48 cell proliferation (CellTiter-Glo); type: cell-based; details: Homo sapiens; SW48 cells (MSI-H), 120 hours
# Description: The following method was used to determine the effect of the compounds of the present disclosure on SW48 cell proliferation. SW48 cells (MSI-H cells) were purchased from American ATCC cell bank and cultured in Leibovitz's L-15 medium (Gibco, catalog No. 11415064) containing 10% fetal bovine serum, 100 U penicillin, and 100 µg/mL streptomycin. Cell viability was determined by CellTiter-Glo® Luminescent Cell Viability Assay kit (Promega, catalog No. G7573).
# The experiment was performed according to the steps of the kit manual, which is briefly described as follows: test compounds were first dissolved in DMSO to prepare 10 mM stock solutions, and then diluted with medium to prepare test samples, with final compound concentrations ranging from 10000 nM to 1.52 nM. Cells in logarithmic growth phase were seeded into 96-well cell culture plates at a density of 500 cells per well and cultured overnight at 37 °C in an air incubator, then test compounds were added and cultivation continued for 120 hours. After the cultivation was completed, 40 µL of CellTiter-Glo detection reagent was added to each well, shaken for 5 minutes, and then left to stand for 10 minutes. Luminescence values of each well were read on a microplate reader using Luminescence mode. The percentage inhibition at each concentration point was calculated by comparison with the control group (0.1% DMSO), and then IC50 values for the compounds for inhibition of cell proliferation were obtained using nonlinear regression analysis of compound concentration logarithm versus inhibition rate in GraphPad Prism 9 software, as shown in Table 2.
# The IC50 value results of the compounds of the present disclosure are represented by A, wherein "A" indicates 1 nM < IC50 ≤ 100 nM. Table 2 IC50 data for inhibition of SW48 cell proliferation by the compounds of the present disclosure
# T1 sequence (Q14191 whole entry): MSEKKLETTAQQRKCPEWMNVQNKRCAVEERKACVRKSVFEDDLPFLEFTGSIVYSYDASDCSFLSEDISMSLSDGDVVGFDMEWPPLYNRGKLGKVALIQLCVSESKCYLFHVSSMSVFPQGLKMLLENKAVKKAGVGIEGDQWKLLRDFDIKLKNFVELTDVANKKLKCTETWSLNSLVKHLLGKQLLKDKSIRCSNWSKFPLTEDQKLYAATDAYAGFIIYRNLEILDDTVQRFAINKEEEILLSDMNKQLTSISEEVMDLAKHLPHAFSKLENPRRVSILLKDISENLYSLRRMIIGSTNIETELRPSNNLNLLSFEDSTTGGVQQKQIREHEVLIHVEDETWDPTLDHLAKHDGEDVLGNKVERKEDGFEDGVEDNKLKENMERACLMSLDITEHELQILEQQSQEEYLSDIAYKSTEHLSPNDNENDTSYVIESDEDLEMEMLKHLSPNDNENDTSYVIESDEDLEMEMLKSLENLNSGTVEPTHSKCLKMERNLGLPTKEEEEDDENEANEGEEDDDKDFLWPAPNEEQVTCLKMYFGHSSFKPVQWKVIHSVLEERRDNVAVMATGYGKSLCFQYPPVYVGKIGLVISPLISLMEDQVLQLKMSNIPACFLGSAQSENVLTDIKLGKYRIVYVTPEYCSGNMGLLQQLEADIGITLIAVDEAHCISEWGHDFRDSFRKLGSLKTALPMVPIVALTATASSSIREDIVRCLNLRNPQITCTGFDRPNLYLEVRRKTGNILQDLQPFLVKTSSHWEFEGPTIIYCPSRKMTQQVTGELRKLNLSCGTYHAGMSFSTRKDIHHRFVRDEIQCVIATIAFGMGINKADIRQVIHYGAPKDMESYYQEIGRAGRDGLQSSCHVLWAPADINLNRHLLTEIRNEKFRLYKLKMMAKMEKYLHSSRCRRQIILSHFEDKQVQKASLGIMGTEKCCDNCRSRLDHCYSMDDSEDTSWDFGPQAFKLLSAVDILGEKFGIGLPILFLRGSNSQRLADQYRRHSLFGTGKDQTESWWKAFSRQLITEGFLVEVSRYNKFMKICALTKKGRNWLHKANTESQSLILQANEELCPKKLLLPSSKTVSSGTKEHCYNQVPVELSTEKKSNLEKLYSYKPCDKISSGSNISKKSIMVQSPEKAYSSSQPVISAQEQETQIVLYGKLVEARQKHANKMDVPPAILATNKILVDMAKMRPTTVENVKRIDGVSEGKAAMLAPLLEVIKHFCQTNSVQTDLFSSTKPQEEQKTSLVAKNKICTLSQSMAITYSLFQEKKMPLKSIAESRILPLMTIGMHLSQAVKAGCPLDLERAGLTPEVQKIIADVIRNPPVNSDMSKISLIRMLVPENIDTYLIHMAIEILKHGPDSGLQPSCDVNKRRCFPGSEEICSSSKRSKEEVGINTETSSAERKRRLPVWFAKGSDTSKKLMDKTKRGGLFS
IC50 (recombinant human WRN) [nM],IC50 (SW48 cells) [nM],SMILES
< 1,1 to 100,"CCc1c(N2CCN(C(=O)c3ncnc(C)c3O)CC2)c(=O)n2nc(C=C3CCC3)nc2n1CC(=O)Nc1ccc(C(F)(F)F)cc1Cl [Example 33, N-(2-chloro-4-(trifluoromethyl)phenyl)-2-(2-(cyclobutylidenemethyl)-5-ethyl-6-(4-(5-hydroxy-6-methylpyrimidine-4-carbonyl)piperazin-1-yl)-7-oxo-[1,2,4]triazolo[1,5-a]pyrimidin-4(7H)-yl) acetamide]"
< 1,1 to 100,"CCc1c(N2CCN(C(=O)c3ncccc3O)CC2)c(=O)n2nc(C=C3CCC3)nc2n1CC(=O)Nc1ccc(S(F)(F)(F)(F)F)cc1 [Example 52, 2-(2-(cyclobutylidenemethyl)-5-ethyl-6-(4-(3-hydroxypicolinoyl)piperazin-1-yl)-7-oxo-[1,2,4]triazolo[1,5-a]pyrimidin-4(7H)-yl)-N-(4-(pentafluoro-λ^6-sulfaneyl)phenyl)acetamide]"
1 to 100,1 to 100,"CCc1c(N2CCN(C(=O)c3ncnc(C)c3O)CC2)c(=O)n2nc(-c3ccc4c(c3)CCO4)nc2n1CC(=O)Nc1ccc(S(F)(F)(F)(F)F)cc1Cl [Example 87, N-(2-chloro-4-(pentafluoro-λ^6-sulfaneyl)phenyl)-2-(2-(2,3-dihydrobenzofuran-5-yl)-5-ethyl-6-(4-(5-hydroxy-6-methylpyrimidine-4-carbonyl)piperazin-1-yl)-7-oxo-[1,2,4]triazolo[1,5-a]pyrimidin-4(7H)-yl)acetamide]"
1 to 100,1 to 100,"CCc1c(C2=CCN(C(=O)c3ncnc(C)c3O)CC2)c(=O)n2nc(C3=CCCCCC3)nc2n1CC(=O)Nc1ccc(S(F)(F)(F)(F)F)cc1 [Example 91, 2-(2-(cyclohept-1-en-1-yl)-5-ethyl-6-(1-(5-hydroxy-6-methylpyrimidine-4-carbonyl)-1,2,3,6-tetra hydropyridin-4-yl)-7-oxo-[1,2,4]triazolo[1,5-a]pyrimidin-4(7H)-yl)-N-(4-(pentafluoro-λ^6-sulfaneyl)phenyl)acetamide]"
1 to 100,1 to 100,"CCc1c(N2CCN(C(=O)c3ncnc(C)c3O)CC2)c(=O)n2nc(-c3cc4ccccc4o3)nc2n1CC(=O)Nc1ccc(S(F)(F)(F)(F)F)cc1 [Example 96, 2-(2-(benzofuran-2-yl)-5-ethyl-6-(4-(5-hydroxy-6-methylpyrimidine-4-carbonyl)piperazin-1-yl)-7-oxo-[1,2,4]triazolo[1,5-a]pyrimidin-4(7H)-yl)-N-(4-(pentafluoro-λ^6-sulfaneyl)phenyl)acetamide]"
1 to 100,1 to 100,"CCc1c(N2CCN(C(=O)c3ncccc3O)CC2)c(=O)n2nc(-c3ccc4c(c3)CCO4)nc2n1CC(=O)Nc1ccc(C(F)(F)F)cc1Cl [Example 104, N-(2-chloro-4-(trifluoromethyl)phenyl)-2-(2-(2,3-dihydrobenzofuran-5-yl)-5-ethyl-6-(4-(3-hydroxypicolinoyl)piperazin-1-yl)-7-oxo-[1,2,4]triazolo[1,5-a]pyrimidin-4(7H)-yl)acetamide]"
1 to 100,1 to 100,"CCc1c(N2CCN(C(=O)c3nc(C)ccc3O)CC2)c(=O)n2nc(-c3ccc4c(c3)CCO4)nc2n1CC(=O)Nc1ccc(C(F)(F)F)cc1Cl [Example 105, N-(2-chloro-4-(trifluoromethyl)phenyl)-2-(2-(2,3-dihydrobenzofuran-5-yl)-5-ethyl-6-(4-(3-hydroxy-6-methylpicolinoyl)piperazin-1-yl)-7-oxo-[1,2,4]triazolo[1,5-a]pyrimidin-4(7H)-yl)a cetamide]"
1 to 100,1 to 100,"CCc1c(N2CCN(C(=O)c3ncncc3O)CC2)c(=O)n2nc(-c3ccc4c(c3)CCO4)nc2n1CC(=O)Nc1ccc(C(F)(F)F)cc1Cl [Example 151, N-(2-chloro-4-(trifluoromethyl)phenyl)-2-(2-(2,3-dihydrobenzofuran-5-yl)-5-ethyl-6-(4-(5-hydroxypyrimidine-4-carbonyl)piperazin-1-yl)-7-oxo-[1,2,4]triazolo[1,5-a]pyrimidin-4(7H)-yl)acetamide]"
1 to 100,1 to 100,"Cc1ncnc(C(=O)N2CCN(c3c(C4CCC4)n(CC(=O)Nc4ccc(C(F)(F)F)cc4Cl)c4nc(-c5ccc6c(c5)CCO6)nn4c3=O)CC2)c1O [Example 155, N-(2-chloro-4-(trifluoromethyl)phenyl)-2-(5-cyclobutyl-2-(2,3-dihydrobenzofuran-5-yl)-6-(4-(5-hydroxy-6-methylpyrimidine-4-carbonyl)piperazin-1-yl)-7-oxo-[1,2,4]triazolo[1,5-a]pyrimidin-4(7H)-yl)acetamide]"
1 to 100,1 to 100,"[2H]c1cc2cc(-c3nc4n(CC(=O)Nc5ccc(C(F)(F)F)cc5Cl)c(CC)c(N5CCN(C(=O)c6ncnc(C)c6O)CC5)c(=O)n4n3)ccc2s1 [Example 169, 2-(2-(benzo[b]thiophen-5-yl-2-d)-5-ethyl-6-(4-(5-hydroxy-6-methylpyrimidine-4-carbonyl)piperazin-1-yl)-7-oxo-[1,2,4]triazolo[1,5-a]pyrimidin-4(7H)-yl)-N-(2-chloro-4-(trifluoromethyl)phenyl) acetamide]"
1 to 100,1 to 100,"[2H]c1sc2ccc(-c3nc4n(CC(=O)Nc5ccc(C(F)(F)F)cc5Cl)c(CC)c(N5CCN(C(=O)c6ncnc(C)c6O)CC5)c(=O)n4n3)cc2c1[2H] [Example 170, 2-(2-(benzo[b]thiophen-5-yl-2,3-d2)-5-ethyl-6-(4-(5-hydroxy-6-methylpyrimidine-4-carbonyl)piperazin-1-yl)-7-oxo-[1,2,4]triazolo9[1,5-a]pyrimidin-4(7H)-yl)-N-(2-chloro-4-(trifluoromethyl)phenyl)acetamide]"
1 to 100,1 to 100,"CCc1c(N2CCN(C(=O)c3ncnc(C)c3O)CC2)c(=O)n2nc(C3=CCC4(CC3)CC4)nc2n1CC(=O)Nc1ccc(S(F)(F)(F)(F)F)cc1Cl [Example 174, N-(2-chloro-4-(pentafluoro-λ^6-sulfaneyl)phenyl)-2-(5-ethyl-6-(4-(5-hydroxy-6-methylpyrimidine-4-carbonyl)piperazin-1-yl)-7-oxo-2-(spiro[2.5]oct-5-en-6-yl)-[1,2,4]triazolo[1,5-a]pyrimidin-4(7 H)-yl)acetamide]"
1 to 100,1 to 100,"CCc1c(N2CCN(C(=O)c3ncnc(C)c3O)CC2)c(=O)n2nc(C3=CCC4(CC3)COC4)nc2n1CC(=O)Nc1ccc(S(F)(F)(F)(F)F)cc1Cl [Example 175, N-(2-chloro-4-(pentafluoro-λ6-sulfaneyl)phenyl)-2-(5-ethyl-6-(4-(5-hydroxy-6-methylpyrimidine-4-carbonyl)piperazin-1-yl)-7-oxo-2-(2-oxaspiro[3.5]non-6-en-7-yl)-[1,2,4]triazolo[1,5-a]pyrimidin-4(7H)-yl)acetamide]"
1 to 100,1 to 100,"CCc1c(N2CCN(C(=O)c3ncnc(C)c3O)CC2)c(=O)n2nc(C3=CCC4(CC3)COC4)nc2n1CC(=O)Nc1ccc(S(F)(F)(F)(F)F)cc1 [Example 176, 2-(5-ethyl-6-(4-(5-hydroxy-6-methylpyrimidine-4-carbonyl)piperazin-1-yl)-7-oxo-2-(2-oxaspiro[3.5]non-6-en-7-yl)-[1,2,4]triazolo[1,5-a]pyrimidin-4(7H)-yl)-N-(4-(pentafluoro-λ^6-sulfaneyl)phenyl)acetamide]"
